Source: US4680285A, “Treatment of malignant tumors with 2-(β-D-ribofuranosylthiazole-4-carboxamide related compounds” (priority 1985, dated 1987)
Entries after “also recorded” stand apart in the source; their conditions may differ. Where two headings read alike, the source gives them in different places.

Key:
type 3 rhinovirus = conditions: cited from earlier work
[1] = system: type 1 herpes simplex virus; conditions: cited from earlier work
virus = conditions: cited from earlier work
[2] = system: P388 lymphocytic leukemia; experiment: P388 lymphocytic leukemia in vivo, median survival, 30-day test (Examples 7 and 8); design: species or system CD2 F1 female mice; conditions: for Percent Treated Animals/Control Animals / Treated Group Survival Time (median): Ex. 7a/8, saline with tween/80; for Treated Group Survival Time (median): control 12.6
Procedure: For examples 7 and 8, CD2 F1 female mice were used and challenged with P388 lymphocytic leukemia tumors. […] The test period was for thirty days in both Examples 7 and 8.
For Examples 7 and 8, as well as Examples 9 and 10 below, any animal of the drug treated group which survived beyond the end of the testing period was then evaluated and placed in one of three groups. The first group was designated as cured, meaning the animal was successfully cured of the tumor. The second group designation was no-takes, meaning survival of the animal was considered to be due to failure of tumor implant. The remaining group was designated as tumor survivors meaning the animals lived beyond the test cut-off date but could not be classified as either cured or no-takes.
For both Examples 7 and 8, thirty animals were used as the control group and six animals each were used at each dose level indicated in tables 3 and 4 below in the drug treated groups. In both Examples 7 and 8, for both the control group and the drug treated groups, tumors were induced by IP inoculation of tumor seed cells on day zero followed by initiation of drug treatment on day one. For both Examples 7a and 8, saline with tween/80 was used as the drug vehicle. For Examples 7b and 7c, water was used as the drug vehicle.
In both the control group and the drug treated group in Examples 7 and 8, the test animals were inoculated on day zero IP with 10^6 seed cells of P388 lymphocytic leukemia. In both Examples 7 and 8, treatment of the drug group was started on day one and the drug was given IP once daily for nine days. Day six was utilized as the cut-off data for death attributable to toxicity of the drug. […] Efficacy of treatment was determined by comparing median survival time of the drug treated animals compared to median survival time of the control animals, and is expressed as percentage increase of treated animals/control animals (T/C) as per Example 5.
In this example drug treated animals were injected IP with the dose level noted in Table 3 below. Six animals were treated at each dose level. No control animals survived beyond day 18 with a median death date of day 12.6.
This examples was performed as per Example 7a at dose levels as noted in table 3b below. A survivor at both the 700 and 800 mg/Kg level was judged as cured. No controls survived beyond day 12 and the mean death day of the control group was day 11.
This example was run as per Example 7a above at dose levels noted in Table 3c below. All controls were dead by day 14 with a mean death day of day 11.9. At the 500 mg/Kg level, one animal was judged as a cure.
Compound 2, 2-(2,3,5-tri-O-acetyl-β-D-ribofuranosyl)thiazole-4-carboxamide was tested as per Example 7a above at dose levels noted in Table 4 below. No controls survived beyond day 18 with an average death date of day 12.6.

[3] = system: type 3 parainfluenza virus; conditions: cited from earlier work
[4] = system: P388 lymphocytic leukemia; format: in vivo, CD2 F1 female mice; conditions: for Percent Treated Animals/Control Animals / Treated Group Survival Time (mean): nine days; for Treated Group Survival Time (mean): control 10.2
Description: Compound 2, 2-(2,3,5-tri-O-acetyl-β-D-ribofuranosyl)thiazole-4-carboxamide was screened in a manner similar to that shown in Example 5, however, the tumor system used as the test tumor was P388 lymphocytic leukemia. 10^6 seed cells were used to initiate the tumor in both the control group and the drug treated group of animals. The same strain of mice was used except female mice were substituted for males. Test results were based on mean survival time and are expressed as T/C percentages (treated animals/control animals) as per Example 5.
In the drug treated animals, treatment was initiated one day after tumor inoculation and the drug was given at the dose levels noted below in table 2. Drug treatment was for nine days and drug toxicity, as in Example 5, was measured on day six.
Average day of death for the control group was 10.2 days whereas at the lowest level of drug treatment the treated animals survived for more than 15 days. As with Example 5, 125% increase in longevity of treated animals over control animals was taken as indicative of positive drug response.

malignant tumors [5] = experiment: antitumor activity in vivo (general statements); conditions: summary statements
L-1210 lymphoid leukemia = L-1210 lymphoid leukemia in vivo, mean survival (Example 11); design: species or system CD2 F1 male mice; conditions: for Percent Treated Animals Control Animals / Treated Group Survival Time (mean): saline
Description: For Example 9a and 9b, CD2 F1 male mice were used and challenged with L-1210 lymphoid leukemia. […] The test period was for thirty days. Test results are expressed as T/C as per Example 5.
In both the control groups and the drug treated groups in Examples 9a and 9b, the test animals were inoculated on day zero IP with 10^6 seed cells of L-1210 lymphoid leukemia. For Example 9a, drug treatment was started on day one and compound 1 given once daily for nine days. Day five was utilized as the cutoff date for death attributable to toxicity of the drug. […] Efficacy of treatment was determined by comparing mean survival time of drug treated animals with mean survival time of the control animals and is expressed as percentage increase of treated animals/control animals (T/C) as per Example 5.
The compound test dosage levels are as noted in tables 7a and 7b below for Example 11a and 11b respectively. In these examples, thirty-six control animals were used and six test animals each at the drug dose levels as is shown in tables 7a and 7b. Saline was used as the drug vehicle.
For both the control groups and the drug test groups, tumors were induced by IP inoculation of tumor seed cells on day zero followed by initiation of drug treatment on day one wherein compound 3 was given once daily for 5 days. Test results are expressed as T/C as per example 5.

malignant tumors [6] = conditions: known from literature; cited from earlier work
viruses = conditions: cited from earlier work

For `CC(=O)OC[C@H]1O[C@@H](c2nc(C(N)=O)cs2)[C@H](OC(C)=O)[C@@H]1OC(C)=O` [Compound 2, 2-(2,3,5-Tri-O-Acetyl-β-D-Ribofuranosyl)thiazole-4-Carboxamide], the “in vitro antiviral activity” value (type 3 rhinovirus) is given as “negative”, the “in vitro antiviral activity” value [1] is given as “only moderate activity” and the “number of deaths of test animals vs placebo control animals” value (virus; in vivo antiviral tests) is given as “equal to or exceeded the number of deaths of the placebo control animals”. The “in vivo antiviral activity” value (virus; in vivo) was “negative”, the “Percent Treated Animals/Control Animals” value ([2]; 12.5 mg/Kg IP once daily x9) was 110% and the “Treated Group Survival Time (median)” value ([2]; 12.5 mg/Kg IP once daily x9) was 13.7 days. The “Percent Treated Animals/Control Animals” value ([2]; 25 mg/Kg IP once daily x9) was 113%, the “Treated Group Survival Time (median)” value ([2]; 25 mg/Kg IP once daily x9) was 14.3 days and the “Percent Treated Animals/Control Animals” value ([2]; 50 mg/Kg IP once daily x9) was 121%. For the same molecule, the “Treated Group Survival Time (median)” value ([2]; 50 mg/Kg IP once daily x9) was 15.3 days, the “Percent Treated Animals/Control Animals” value ([2]; 100 mg/Kg IP once daily x9) was 145% and the “Treated Group Survival Time (median)” value ([2]; 100 mg/Kg IP once daily x9) was 18.3 days. The “Percent Treated Animals/Control Animals” value ([2]; 200 mg/Kg IP once daily x9) was 150%, the “Treated Group Survival Time (median)” value ([2]; 200 mg/Kg IP once daily x9) was 19.0 days and the “Percent Treated Animals/Control Animals” value ([2]; 400 mg/Kg IP once daily x9) was 161%. The “Treated Group Survival Time (median)” value ([2]; 400 mg/Kg IP once daily x9) was 20.3 days, the “surviving animals judged as no-take” value ([2]; Ex. 7a/8, 50 mg/Kg, thirty days) was “one surviving animal was judged as a no-take” and the “activity against P388 lymphocytic leukemia” value ([2]; Examples 7 and 8, multiple dose) was “active antitumor agents; also recorded: active against P388 lymphocytic leukemia”. The “DN 2 (Decision Network) criteria of the National Cancer Institute” value ([2]; P388) was “successfully passed”, the “in vitro antiviral activity” value [3] was “negative” and the “Percent Treated Animals/Control Animals” value ([4]; 50 mg/Kg IP) was 150%. For the same molecule, the “Treated Group Survival Time (mean)” value ([4]; 50 mg/Kg IP) was 15.3 days, the “Percent Treated Animals/Control Animals” value ([4]; 100 mg/Kg IP) was 176% and the “Treated Group Survival Time (mean)” value ([4]; 100 mg/Kg IP) was 18.0 days. The “Percent Treated Animals/Control Animals” value ([4]; 200 mg/Kg IP) was 179%, the “Treated Group Survival Time (mean)” value ([4]; 200 mg/Kg IP) was 18.3 days and the “survival of treated animals” value ([4]; lowest level of drug treatment, control 10.2 days) was “more than 15 days”. For the same molecule, the antitumor activity (malignant tumors [5]) was “effective antitumor agent when injected intraperitoneally”.

With `NC(=O)c1csc([C@@H]2O[C@H](COP(=O)(O)O)[C@@H](O)[C@H]2O)n1` [Compound 3, 2-(5-O-Phosphoryl-β-D-Ribofuranosyl)thiazole-4 Carboxamide] the “Percent Treated Animals Control Animals” value (L-1210 lymphoid leukemia; Ex. 11a, 50 mg/Kg once daily x5) was 136%, the “Treated Group Survival Time (mean)” value (L-1210 lymphoid leukemia; Ex. 11a, 50 mg/Kg once daily x5, control 8.3) was 11.3 days and the “Percent Treated Animals Control Animals” value (L-1210 lymphoid leukemia; Ex. 11a, 100 mg/Kg once daily x5) was 186%. The “Treated Group Survival Time (mean)” value (L-1210 lymphoid leukemia; Ex. 11a, 100 mg/Kg once daily x5, control 8.3) was 15.5 days, the “Percent Treated Animals Control Animals” value (L-1210 lymphoid leukemia; Ex. 11a, 200 mg/Kg once daily x5) was 259% and the “Treated Group Survival Time (mean)” value (L-1210 lymphoid leukemia; Ex. 11a, 200 mg/Kg once daily x5, control 8.3) was 21.5 days. For the same molecule, the “Percent Treated Animals Control Animals” value (L-1210 lymphoid leukemia; Ex. 11a, 400 mg/Kg once daily x5) was 183%, the “Treated Group Survival Time (mean)” value (L-1210 lymphoid leukemia; Ex. 11a, 400 mg/Kg once daily x5, control 8.3) was 15.2 days and the “Percent Treated Animals Control Animals” value (L-1210 lymphoid leukemia; Ex. 11a, 800 mg/Kg once daily x5) was 196%. The “Treated Group Survival Time (mean)” value (L-1210 lymphoid leukemia; Ex. 11a, 800 mg/Kg once daily x5, control 8.3) was 16.3 days, the “Percent Treated Animals Control Animals” value (L-1210 lymphoid leukemia; Ex. 11b, 50 mg/Kg once daily x5) was 128% and the “Treated Group Survival Time (mean)” value (L-1210 lymphoid leukemia; Ex. 11b, 50 mg/Kg once daily x5, control 10.1) was 13.0 days. The “Percent Treated Animals Control Animals” value (L-1210 lymphoid leukemia; Ex. 11b, 100 mg/Kg once daily x5) was 121%, the “Treated Group Survival Time (mean)” value (L-1210 lymphoid leukemia; Ex. 11b, 100 mg/Kg once daily x5, control 10.1) was 12.3 days and the “Percent Treated Animals Control Animals” value (L-1210 lymphoid leukemia; Ex. 11b, 200 mg/Kg once daily x5) was 145%. For the same molecule, the “Treated Group Survival Time (mean)” value (L-1210 lymphoid leukemia; Ex. 11b, 200 mg/Kg once daily x5, control 10.1) was 14.7 days, the “Percent Treated Animals Control Animals” value (L-1210 lymphoid leukemia; Ex. 11b, 400 mg/Kg once daily x5) was 155% and the “Treated Group Survival Time (mean)” value (L-1210 lymphoid leukemia; Ex. 11b, 400 mg/Kg once daily x5, control 10.1) was 15.7 days. The “Percent Treated Animals Control Animals” value (L-1210 lymphoid leukemia; Ex. 11b, 600 mg/Kg once daily x5) was 160%, the “Treated Group Survival Time (mean)” value (L-1210 lymphoid leukemia; Ex. 11b, 600 mg/Kg once daily x5, control 10.1) was 16.2 days and the “activity against L-1210 lymphoid leukemia” value (L-1210 lymphoid leukemia; Examples 11a and 11b) was “active against L-1210 lymphoid leukemia”. The drug toxicity (L-1210 lymphoid leukemia; Examples 11a and 11b, 50-800 mg/Kg) was “No drug toxicity was noted” and the antitumor activity (malignant tumors [5]) was “effective in vivo antitumor agents”.

For `NC(=O)c1ncn([C@@H]2O[C@H](COP(=O)(O)O)[C@@H](O)[C@H]2O)n1` [RIBAVIRIN 5' monophosphate], the antitumor activity (malignant tumors [6]) is given as “inactive as antitumor compounds”.

For `NC(=O)c1ncn([C@@H]2O[C@H](CO)[C@@H](O)[C@H]2O)n1` [RIBAVIRIN, reference compound], the “in vitro antiviral activity” value (viruses) is given as “active in vitro antiviral agent” and the antitumor activity (malignant tumors [6]) is given as “no significant antitumor activity”.
